# Data from patent publication US20070123551A1, “Use of metabotropic glutamarate receptor 5 (mglur5) antagonists for the treatment of gastrointestinal disorders” (priority 2003, published 2007).
# Tested on: WKY rats
# Assay: in vivo gastric distension model (barostat, ramp and tonic distension) in conscious WKY rats
# Set-up: species or system Wistar Kyoto rats
# From the text: An in vivo gastric distension model is used as a model for functional gastrointestinal disorders, in particular for functional dyspepsia (Bayati A, Astin M, Ekman C, Mattsson H. Wistar Kyoto rats have impaired gastric adaptive accommodation in response to gastric distension. Gastroenterology 2003; 124 (4, suppl 1): W1471 (abstract)).
# The gastric distension model enables detailed analysis of the physico-mechanical properties of the stomach, e.g. basal gastric tone, threshold for accommodation, accommodation rate, accommodation volume, and maximal gastric volume. […] Furthermore, it has been shown that patients with Functional Dyspepsia as well as Wistar Kyoto (WKY) rats have an impaired gastric adaptive response and also a lower total gastric volume as compared to healthy subjects and Sprague Dawley (SD) rats, respectively. In addition, the method has shown to be reproducible and reliable. Moreover, the advantage of the presently used barostat technique compared to other barostat techniques normally used in experimental clinical studies is that it is possible to discriminate between if a compound exerts its effect directly on gastric smooth muscles or if the effect involves the vagal reflex mechanism.
# The rats are equipped with fistulas chronically implanted into the stomach. During gastric barostat experiments, a small inflatable plastic bag with a spherical shape is inserted through fistula into the glandular part of the stomach (middle to distal part in the rat). The experiments are performed in conscious rats. For detailed analysis of the physico-mechanical properties of the stomach, a combination of ramp and tonic distension paradigm is used. Pressure and volume data collected during experiments are saved for and further analysis.
# In order to determine an animal's maximum gastric accommodation capacity, a balloon is inserted into the stomach of the animal and a four phase protocol which includes a start phase, a ramp phase, a tonic phase and an end phase is performed. A barostat system maintains the pressure by pumping air into and out of the balloon. The pressure applied to the balloon and the corresponding changes to the volume of the balloon are monitored throughout, e.g., using any barostat system known in the art (e.g., see Toma et al, Neurogastroenterol. Mot., 8, 19-28, 1996).
# During the start phase a minimum distension pressure, e.g., 1 mmHg, is applied to the balloon until base line values are obtained. This is followed by a Ramp Phase. During this phase the pressure applied to the balloon is increased linearly with a constant increase in pressure to a preset maximum value. This second phase is then followed by the Tonic Phase at which the preset maximum pressure is kept constant. Finally, the pressure is rapidly dropped to the starting minimum distension pressure and this period is known as the End Phase.
# To determine if an agent, e.g., a compound is useful in the treatment of FD, the maximum gastric accommodation rate in the WKY rat following administration of the compound is calculated. A compound of interest will be a compound that alters the maximum gastric accommodation rate in the animal and this is calculated by determining a difference in the maximum gastric accommodation rate before and after administration of the compound.
# The Wistar Kyoto rats (WKY; M&B Denmark) are starved about 6 or 18 hours before each experiment depending on if the experiments are performed in the morning or in the afternoon. […]
# [1] = 10 μmol/kg intravenously 3-5 min before start of ramp phase, compared to the control situation, FIG. 1
smiles,measurement,setting,value
"Cc1cccc(C#Cc2ccccc2)n1 [MPEP, 2-methyl-6-(phenylethynyl)-pyridine]",gastric volume during the ramp phase,[1],increase
same,gastric volume during the tonic phase,[1],increase
same,accommodation rate (the slope of volume curve during the tonic phase),"10 μmol/kg intravenously, FIG. 1",increased
same,maximum gastric volume,"10 μmol/kg intravenously, compared to the control situation, FIG. 1",increased
same,accommodation capacity,"10 μmol/kg intravenously, conclusion",increases
